Tests used:
MeWo cells = experiment: Migration assay (scratch), MeWo; format: cell-based, human; settings: 1 μM, 48 h, with greater potency than SCH772984
Experimental: Migration assays. Cells were grown in medium containing 10% FBS in 6-well plates. The following day the cells were scratched with a sterile toothpick, washed with PBS, and incubated in medium containing 10% FBS and vehicle, BT2 or SCH772984 at 1 μM. At 0, 24 h and 48 h the cells were photographed under a 4× objective using an Olympus CKX41 microscope. To assess the effect of BT2 on melanoma cell migration, A375 and MeWo cells were incubated with 1 μM of BT2 or SCH772984, and A375 and MeWo migration into the denuded zone was quantified after 24 or 48 h, respectively.

IFN-γ = experiment: Mouse serum IFN-γ levels by ELISA; format: in vivo; settings: B16F10 tumor-bearing mice Day 17, 200 mg/kg i.p., vs vehicle
Experimental: Mouse serum IFN-γ levels. Whole blood was collected from Day 17 mice and spun at 1500 g for 10 min at 4° C. Serum was extracted from the top layer and stored at −80° C. IFN-γ levels were measured using the mouse IFN-γ (Improved) ELISA kit (Invitrogen, cat. no. KMC4021) according to the manufacturer's protocol, with absorbance being read at 450 nm. GraphPad Prism 9 software was used to generate the standard curve. IFN-γ levels in mouse serum were measured alongside the standard curve by using GraphPad Prism 9.
IFN-γ is a biomarker of cellular immunity and the antitumor immune response. Elevated IFN-γ is associated with a systemic immune response in cancer patients and tumor-bearing mice after immune checkpoint therapy. Since IFN-γ is produced by T cells, levels of IFN-γ in the sera of tumor-bearing mice treated with vehicle or BT2 were determined.

PD-1 = experiment: Western blotting for PD-1, Jurkat T cells; format: cell-based, human; settings: various concentrations, 24 h
Experimental: Western blotting. Cells were treated with compounds and times indicated and total cell lysates were prepared in RIPA buffer. Lysates (10 μg) were resolved by SDS-PAGE and transferred to Immobilon-P polyvinylidene difluoride (PVDF) membranes (Millipore, USA).
Membranes were blocked with 5% skim milk and incubated with rabbit monoclonal anti-c-Jun (Abcam, cat. no. ab32137; mouse, rat and human reactive) antibody, rabbit monoclonal anti-PD-1 (Abcam, cat. no. ab214421) antibody, mouse monoclonal β-actin antibody (Sigma-Aldrich, cat. no. A5316), anti-phospho-SAPK/JNK (Thr^183/Tyr^185) (98F2) (CST, cat. no. 4671) antibody, anti-phospho-p44/42 MAPK (ERK1/2) (Thr^202/Tyr^204) (D13.14.4E) (CST, cat. no. 4370) antibody, anti-phospho-p38 MAPK (Thr^180/Tyr^182) (D3F9) (CST, cat. no. 4511) antibody, anti-SAPK/JNK antibody (CST, cat. no. 9252), anti-p44/42 MAPK (ERK1/2) (137F5) antibody (CST, cat. no. 4695), anti-p38 MAPK antibody (CST, cat. no. 9212), anti-DUSP8 antibody (Abcam, cat. no. ab198175) or anti-c-MAF (BLR045F) antibody (Abcam, cat. no. ab243901). This was followed by incubation with horseradish peroxidase-conjugated secondary goat anti-rabbit (DAKO, cat. no. P0448) or goat anti-mouse (DAKO, cat. no. P0447) antibody. Chemiluminescence was detected using the Western Lightning Chemiluminescence system (Thermo Scientific, USA) and ImageQuant™ LAS 4000 biomolecular imager (GE Healthcare Life Sciences, USA). Band intensity in images generated with the LAS 4000 was quantified using NIH Image J.

## CCOC(=O)Nc1ccc2c(c1)C(=O)N(CC)c1ccccc1O2 [BT2, (10-ethyl-11-oxo-10,11-dihydro-dibenzo[b,f][1,4]oxazepin-2-yl)-carbamic acid ethyl ester]
MeWo cells
  migration into the denuded zone: suppressed melanoma migration
IFN-γ
  circulating (serum) IFN-γ levels: elevated
PD-1
  PD-1 expression (Western blot): suppressed by BT2 in a dose-dependent manner

Source: patent publication US20250352555A1, “METHOD OF INCREASING IMMUNE CELL ACTIVATION AND/OR TREATING CANCER USING DIBENZOXAZEPINONES” (VASCULAR THERAPEUTICS PTY LTD, priority 2022, published 2025)
